The test has as its target T1, aquaporin-3 (AQP3) (Homo sapiens, UniProt Q92482).
T1 construct: human AQP3 C-terminally GFP-tagged, expressed in aqy-null S. cerevisiae; endogenous AQP3 in human red blood cells
T1 sequence (Q92482 1-292): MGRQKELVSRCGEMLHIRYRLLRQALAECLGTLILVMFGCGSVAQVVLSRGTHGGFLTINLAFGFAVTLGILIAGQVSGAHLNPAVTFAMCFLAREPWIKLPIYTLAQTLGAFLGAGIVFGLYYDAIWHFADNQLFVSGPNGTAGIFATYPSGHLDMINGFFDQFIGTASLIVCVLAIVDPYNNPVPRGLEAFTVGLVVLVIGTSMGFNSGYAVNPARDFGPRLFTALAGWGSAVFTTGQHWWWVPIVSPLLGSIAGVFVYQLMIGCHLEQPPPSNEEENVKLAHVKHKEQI
The test is described as follows: stopped-flow glycerol permeability in hRBCs (IC50), confirmed in hAQP3-expressing yeast ([…] inhibition at […]). Format: cell-based.

Broadly, the IC50 is the concentration that gives 50% inhibition. In turn, `CC(=O)c1c(O)c(C)c(O)c(Cc2c(O)c3c(c(C(=O)/C=C/c4ccccc4)c2O)OC(C)(C)C=C3)c1O` [RoT, Rottlerin] displayed an IC50 of 6.7 ± 2.97 µM.
